From US20250215008A1, “PREPARATION AND USE OF QUINAZOLINONE DERIVATIVE AS KINASE INHIBITOR” (Haisco Pharmaceutical Group Co., Ltd., priority 2022, published 2025)
Where two headings read alike, the source gives them in different places.

Experiments:
A375 cells = assay: A375 cell proliferation inhibition; assay type: cell-based; conditions: read-out: IC50/nM, inhibitory activity on A375 cells
Procedure: A375 cells (ATCC, CRL-1619) were cultured in DMEM complete medium (+10% FBS) in a CO2 incubator at 37° C. for 48 h. The cells were trypsinized and counted, and then the density was adjusted to 1.67×10^4 cells/mL. 90 μL (1500 cells) of cells were inoculated into each well of a 96-well transparent bottom plate, and the plate was transferred to a CO2 incubator and the cells were cultured overnight at 37° C. After the cells were incubated overnight, 10 μL of the diluted compound (final concentration starting from 10 μM, 3-fold dilution, 11 concentrations) was added to each well using a multi-channel pipette. The positive control was a serum-free medium containing DMSO. After mixing evenly, the cells were placed in a CO2 incubator at 37° C. for 72 h. After the incubation, the CellCounting-Lite®2.0 kit detection solution (Vazyme, DD1101-03) was taken out and returned to room temperature. 100 μL of CellCounting-Lite2.0 detection solution was added to each well, the plate was sealed with a sealing film, and the plate was placed on a shaker for shaking for 15 min (the whole process should be kept away from light). The Luminescence module of the microplate reader (BMG LRBTECH) was used to detect the fluorescence signal value LUM of each well. The formula
[formula] • was used to calculate the inhibition rate of the compound. The Graphpad software log (inhibitor) vs. response—Variable slope (four parameters) equation was used to perform fitting analysis and calculate the IC50 value of the sample. The ordinate of the data is the percentage of inhibition rate, and the abscissa is the logarithm of the sample concentration (Log10).

[1] = Mouse pharmacokinetic test; assay type: in vivo, ICR mice; conditions: for Kp: brain/plasma, read-out: brain/plasma ratio; for Vd: read-out: Vdss
Procedure: • 1.1 Experimental animals: male ICR mice, 20-25 g, 12 mice/compound, purchased from Chengdu Ddossy Experimental Animals Co., Ltd. • 1.2 Experimental design: on the day of the test, 12 ICR mice were randomly grouped according to their body weights. The animals were fasted with water available for 12 to 14 h one day before the administration and were fed 4 h after the administration.
Before and after administration, 0.06 mL of blood was taken from the orbit under isoflurane anesthesia and placed in an EDTAK2 centrifuge tube for centrifugation at 5000 rpm at 4° C. for 10 min, followed by plasma collection. The blood collection time points for the intravenous administration group and intragastric administration group were 0, 5 min, 15 min, 30 min, 1 h, 2 h, 4 h, 7 h and 24 h. Before analysis and detection, all samples were stored at −80° C., and a quantitative analysis of samples was performed using LC-MS/MS.

[2] = Beagle dog pharmacokinetic test; assay type: in vivo, beagle dogs; conditions: for F: beagle dog
Procedure: • Experimental animals: male beagle dogs, about 8-11 kg, 6 beagle dogs/compound, purchased from Beijing Marshall Biotechnology Co., Ltd. • Experimental method: on the day of the experiment, 6 beagle dogs were randomly grouped according to their body weights. The animals were fasted with water available for 12 to 14 h one day before the administration and were fed 4 h after the administration. Administration was performed as per Table 1.
(DMA: dimethylacetamide; Solutol: polyethylene glycol-15-hydroxystearate; Saline: physiological saline; MC: Methylcellulose solution) Before and after the administration, 1 ml of blood was taken from the jugular veins or limb veins, and placed in an EDTAK2 centrifuge tube. Centrifugation was performed at 5000 rpm at 4° C. for 10 min, and plasma was collected. The blood collection time points for the intravenous group and intragastric group were both 0 min, 5 min, 15 min, 30 min, 1 h, 2 h, 4 h, 6 h, 8 h, 10 h, 12 h, 24 h, 48 h, and 72 h. Before analysis and detection, all samples were stored at −80° C. The samples were analyzed quantitatively by LC-MS/MS.

Rat pharmacokinetic test = assay type: in vivo, SD rats
Procedure: • 5.1 Experimental animals: male SD rats, about 220 g, 6-8 weeks old, 6 rats/compound, purchased from Chengdu Ddossy Experimental Animals Co., Ltd. • 5.2 Experimental design: on the day of the experiment, 6 SD rats were randomly grouped according to their body weights; the animals were fasted with water available for 12 to 14 h one day before the administration and were fed 4 h after the administration.
Before and after the administration, 0.1 ml of blood was taken from the orbit of the animals under isoflurane anesthesia and placed in an EDTAK2 centrifuge tube. The blood was centrifuged at 5000 rpm and 4° C. for 10 min to collect plasma. Blood sampling time points for the intravenous administration group: 0, 5 min, 15 min, 30 min, 1 h, 2 h, 4 h, 6 h, 8 h, and 24 h; blood sampling time points for the intragastric administration group: 0, 5 min, 15 min, 30 min, 1 h, 2 h, 4 h, 6 h, 8 h and 24 h. Before analysis and detection, all samples were stored at −80° C.

[3] = male, ICR, po, mouse, i.g. 10 mg/kg
[4] = male, ICR, iv, mouse plasma, i.v. 2.5 mg/kg
[5] = male, ICR, iv, mouse plasma, i.v. 2.5 mg/kg, read-out: AUC0-t
[6] = male, ICR, po, mouse plasma, i.g. 10 mg/kg
[7] = male, ICR, po, mouse plasma, i.g. 10 mg/kg, read-out: AUC0-t
[8] = beagle dog plasma, i.v. 0.5 mg/kg
[9] = rat plasma, intragastric administration 10 mg/kg
[10] = rat plasma, intravenous administration 2.5 mg/kg

SMILES	IC50 (A375 cells; 72 h)	IC50 (A375 cells; Homo sapiens, A-375, 72 h)	Kp [1, 3]	clearance [1, 4]	half-life [1, 4]	AUC(0-t) [1, 5]	Vd [1, 4]	half-life [1, 6]	AUC(0-t) [1, 7]	F ([1]; mouse, i.g. 10 mg/kg)	also measured
N#Cc1c(NS(=O)(=O)N2CC3(CCC3F)C2)ccc(F)c1Oc1ccc2ncn(CC(F)F)c(=O)c2c1 (single isomer, unassigned) [Compound 40]	≤ 10 nM	–	–	–	–	–	–	–	–	–	–
COn1cnc2ccc(Oc3c(F)ccc(NS(=O)(=O)N4CC[C@@H](F)C4)c3C#N)cc2c1=O [Compound 4]	–	≤ 10 nM	0.053	0.37 mL/min/kg	5.27 h	107 µg·h/mL	0.147 L/kg	4.02 h	282 µg·h/mL	–	–
Cn1cnc2ccc(Oc3c(F)ccc(NS(=O)(=O)N4CC5(CC5)C4)c3C#N)cc2c1=O [Compound 5]	–	≤ 10 nM	0.0181	0.0627 mL/min/kg	30.2 h	290 µg·h/mL	0.159 L/kg	19.2 h	1080 µg·h/mL	93.6%	–
COn1cnc2ccc(Oc3c(F)ccc(NS(=O)(=O)N4CC5(CCC5)C4)c3C#N)cc2c1=O [Compound 7]	–	–	0.0425	0.144 mL/min/kg	9.79 h	240 µg·h/mL	0.111 L/kg	13.7 h	792 µg·h/mL	92.6%	–
COn1cnc2ccc(Oc3c(F)ccc(NS(=O)(=O)N4CC5(CC5)C4)c3C#N)cc2c1=O [Compound 8]	–	–	0.0173	0.147 mL/min/kg	8.59 h	247 µg·h/mL	0.0941 L/kg	12.9 h	1300 µg·h/mL	≥98%	–
N#Cc1c(NS(=O)(=O)N2CC3(CCC3)C2)ccc(F)c1Oc1ccc2ncn(CC(F)F)c(=O)c2c1 [Compound 10]	–	≤ 10 nM	0.0107	0.117 mL/min/kg	12 h	272 µg·h/mL	0.111 L/kg	11.8 h	914 µg·h/mL	83.9%	F ([2]; i.g. 3 mg/kg): 79.7%; clearance ([2]; male, iv, beagle dog plasma, i.v. 0.5 mg/kg): 0.425 mL/min/kg; AUC(0-t) ([2]; male, iv, beagle dog plasma, i.v. 0.5 mg/kg, read-out: AUC0-t): 40.9 µg·h/mL; Vd ([2]; male, iv, beagle dog plasma, i.v. 0.5 mg/kg, read-out: Vdss): 0.155 L/kg; AUC(0-t) ([2]; male, po, beagle dog plasma, i.g. 3 mg/kg, read-out: AUC0-t): 97.8 µg·h/mL
Cn1cnc2ccc(Oc3c(F)ccc(NS(=O)(=O)N4CC(CF)C4)c3C#N)cc2c1=O [Compound 14]	–	≤ 10 nM	–	–	–	–	–	–	–	–	–
Cn1cnc2ccc(Oc3c(F)ccc(NS(=O)(=O)N4CCC5CC54)c3C#N)cc2c1=O (centres unmarked) [Compound 17]	–	≤ 10 nM	–	–	–	–	–	–	–	–	–
N#Cc1c(NS(=O)(=O)N2CC3(CCC3)C2)ccc(F)c1Oc1ccc2ncn3ccnc3c2c1 [Compound 22]	–	≤ 10 nM	–	–	–	–	–	–	–	–	–
N#Cc1c(NS(=O)(=O)N2CC3(CCC3)C2)ccc(F)c1Oc1ccc2ncn(CCF)c(=O)c2c1 [Compound 26]	–	≤ 10 nM	0.0179	0.119 mL/min/kg	12.8 h	266 µg·h/mL	0.114 L/kg	8.68 h	832 µg·h/mL	78.1%	–
N#Cc1c(NS(=O)(=O)N2CC3(CCC3)C2)ccc(F)c1Oc1ccc2ncn(C3COC3)c(=O)c2c1 [Compound 33]	≤ 10 nM	–	–	–	–	–	–	–	–	–	–
N#Cc1c(NS(=O)(=O)N2CC3(CCC3)C2)cc(F)c(F)c1Oc1ccc2ncn(CCF)c(=O)c2c1 [Compound 39]	≤ 10 nM	–	–	–	–	–	–	–	–	–	AUC(0-t) ([2]; beagle dog plasma, i.g. 3 mg/kg): 84.281 µg·h/mL; AUC(0-t) [2, 8]: 31.095 µg·h/mL; CL [2, 8]: 0.541 mL/min/kg; Vdss [2, 8]: 0.08 L/kg; F ([2]; i.g. 3 mg/kg): 90.3%
N#Cc1c(NS(=O)(=O)N2CC3(CCC3(F)F)C2)ccc(F)c1Oc1ccc2ncn(CC(F)F)c(=O)c2c1 [Compound 42]	≤ 10 nM	–	–	–	–	–	–	–	–	–	–
Cc1cnc2c3cc(Oc4c(F)ccc(NS(=O)(=O)N5CC6(CCC6)C5)c4C#N)ccc3ncn12 [Compound 44]	≤ 10 nM	–	–	–	–	–	–	–	–	87.9%	AUC(0-t) ([1]; mouse plasma, i.g. 10 mg/kg): 442.783 µg·h/mL; T1/2 ([1]; mouse plasma, i.g. 10 mg/kg): 14.2 h; AUC(0-t) ([1]; mouse plasma, i.v. 2.5 mg/kg): 125.977 µg·h/mL; CL ([1]; mouse plasma, i.v. 2.5 mg/kg): 0.335 mL/min/kg; T1/2 ([1]; mouse plasma, i.v. 2.5 mg/kg): 7.5 h; Vdss ([1]; mouse plasma, i.v. 2.5 mg/kg): 0.135 L/kg; brain/plasma ratio ([1]; mouse, i.g. 10 mg/kg): 0.0162
N#Cc1c(NS(=O)(=O)N2CC3(CCC3)C2)cc(F)c(F)c1Oc1ccc2ncn3ccnc3c2c1 [Compound 46]	≤ 10 nM	–	–	–	–	–	–	–	–	–	–
N#Cc1c(NS(=O)(=O)N2CC3(CC3)C2)ccc(F)c1Oc1ccc2ncn(CCF)c(=O)c2c1 [Compound 47]	≤ 10 nM	–	–	–	–	–	–	–	–	–	AUC(0-t) (Rat pharmacokinetic test; [9]): 4256.852 µg·h/mL; T1/2 (Rat pharmacokinetic test; [9]): 60.6 h; AUC(0-t) (Rat pharmacokinetic test; [10]): 1156.844 µg·h/mL; CL (Rat pharmacokinetic test; [10]): 0.036 mL/min/kg; T1/2 (Rat pharmacokinetic test; [10]): 50.9 h; Vdss (Rat pharmacokinetic test; [10]): 0.156 L/kg; F (Rat pharmacokinetic test; rat, intragastric administration 10 mg/kg): 92%
N#Cc1c(NS(=O)(=O)N2CC3(CC3)C2)ccc(F)c1Oc1ccc2ncn3ccnc3c2c1 [Compound 49]	≤ 10 nM	–	–	–	–	–	–	–	–	–	–
N#Cc1c(NS(=O)(=O)N2CC3(CC3)C2)cc(F)c(F)c1Oc1ccc2ncn(CCF)c(=O)c2c1 [Compound 50]	≤ 10 nM	–	–	–	–	–	–	–	–	–	–
N#Cc1c(NS(=O)(=O)N2CC[C@@H](F)C2)cc(F)c(F)c1Oc1ccc2ncn(CCF)c(=O)c2c1 [Compound 51]	≤ 10 nM	–	–	–	–	–	–	–	–	–	–
